From patent publication US11628162B2, “Methods of treating cancer with an FGFR inhibitor” (Incyte Corporation, priority 2019, dated 2023) come the findings set out here.

For series [1], the system named is human liver microsomes. Kind of series: Metabolism of pemigatinib in human liver microsomes with selective chemical CYP inhibitors. The settings on record: pemigatinib 1 μM, human liver microsomes 1 mg/mL, NADPH; no inhibitor or furafylline 10, ticlopidine 2, quercetin 10, sulfaphenazole 10, tranylcypromine 20, quinidine 1, ketoconazole 2 μM. On the technique in general: Microsomes from liver hold many membrane-bound enzymes, among them those of drug oxidation.
Description: (§1) Aliquots were taken at 0, 10, 20, and 30 minutes and denatured with methanol. After centrifugation to remove the denatured proteins, the resulting supernatants were analyzed by LC/MS.

Series [2] deals with human liver microsomes. As to conditions: 0.5 h, 1 μM, pH 7.4.
Description: as §1
The conditions of series [3]: human, in vivo.
A short description of series [4]: Phase 1 drug-drug interaction study: safety and tolerability (TEAEs). As to conditions: healthy male and female volunteers.
Description: In addition, this study also evaluates the safety and tolerability of pemigatinib when administered alone or in combination with itraconazole or rifampin. Safety and tolerability is assessed by monitoring adverse events, vital signs, physical examinations, 12-lead ECGs, and clinical laboratory blood and urine sample assessments. Pharmacokinetic endpoints include tmax, AUC0-t, AUC0-∞, t1/2, CL/F, and Vz/F.
Vital signs (oral temperature; respiratory rate; automated, seated blood pressure; and pulse) are obtained at screening, check-in, and follow-up; at 0 hour (predose) on Days 1 and 8; and at approximately 1, 2, 3, 6, and 24 hours after the morning dose on Day 4 and Day 9. Clinical safety laboratory assessments are performed at screening; on Days −1, 2, 5, 9, 10, and 11; and at follow-up. A serum pregnancy is obtained at screening and follow-up. A urine pregnancy test is obtained at check-in for each visit for all women. On Day 8, a 12-lead ECG is performed predose, 2 hours postdose, and approximately 24 hours postdose. On other days, 12-lead ECGs are performed only at predose.
Vital signs (oral temperature; respiratory rate; automated, seated blood pressure; and pulse) are obtained at screening, check-in and follow-up; at 0 hour (predose) on Days 1 and 11; and at approximately 1, 2, 3, 6, and 24 hours after the morning dose on Days 4, 10, and 12. Clinical safety laboratory assessments are performed at screening; on Days −1, 2, 8, and 13; and at follow-up. A serum pregnancy test is obtained at screening and follow-up. A urine pregnancy test is obtained at check-in for each visit for all women. On Day 11, a 12-lead ECG is performed predose, 2 hours postdose, and approximately 24 hours postdose. On other days, 12-lead ECGs is performed only at predose.
The nature of series [5]: Phase 1 drug-drug interaction study: single-dose pemigatinib PK alone or with itraconazole or rifampin.
Setting [6] is: Cohort 2: 13.5 mg pemigatinib alone or with rifampin 600 mg QD, geometric mean.
Where [7] appears, read: Cohort 2: 13.5 mg pemigatinib alone or with rifampin 600 mg QD, mean ± SD.

“And” between values parts separate entries of the source, which are not always exact repeats. Equal entries are not always repeated. Where two headings read alike, the source gives them in different places.

On to `N[C@@H]1C[C@H]1c1ccccc1` (racemic) [Tranylcypromine], for which, in the series with human liver microsomes [1], the “Mean Percent of Pemigatinib Remaining After 30-Minute Incubation (N = 3)” value is 73 ± 2%.

`Cc1nc2c([nH]1)c(=O)n(C)c(=O)n2Cc1ccco1` [Furafylline]: the “Mean Percent of Pemigatinib Remaining After 30-Minute Incubation (N = 3)” value in the series with human liver microsomes [2] was 67 ± 1%.

On to `CCC(C)n1ncn(-c2ccc(N3CCN(c4ccc(OCC5COC(Cn6cncn6)(c6ccc(Cl)cc6Cl)O5)cc4)CC3)cc2)c1=O` (centres unmarked) [Itraconazole, reference compound], for which, in series [3] (po), the “Pemigatinib AUC Ratio, Observed” value was 1.88 and the “Pemigatinib Cmax Ratio, Observed” value turned out to be 1.17.

With `CCN1C(=O)N(c2c(F)c(OC)cc(OC)c2F)Cc2cnc3[nH]c(CN4CCOCC4)cc3c21` [Pemigatinib + rifampin], the “Decrease in half-life of pemigatinib following rifampin coadministration” value in series [3] is listed as 63%. For the same molecule, the “Safety and tolerability (overall conclusion)” value in series [4] was “safe and generally well tolerated”. For the same molecule, in series [5] (setting [6]), the AUC0-t came to 0.28 µM·h, the “AUC0-∞” value turned out to be 0.292 µM·h, the CL/F worked out at 94.7 L/h and the concentration peaked (Cmax) at 66.9 nM. The t1/2 in series [5] (setting [6]) is 4.7 h and 4.69 h. Moreover, in series [5] (setting [7]), the AUC0-t came to 0.289 ± 0.0749 µM·h, the “AUC0-∞” value amounted to 0.301 ± 0.0755 µM·h, the CL/F came to 97.5 ± 23.8 L/h and the t1/2 is given as 5.05 ± 2.76 h. Also, in series [5] (Cohort 2: 13.5 mg pemigatinib alone or with rifampin 600 mg QD, median), the Tmax is listed as 1.00 h. The molecule also returned a Cmax in series [5] (Cohort 2: healthy volunteers n=18, single oral 13.5 mg pemigatinib fasted, alone or with rifampin 600 mg QD, mean ± SD) of 69.7 ± 20 nM. Further, the “Change in pemigatinib exposure on coadministration” value in series [5] (with potent CYP3A4 inhibitor or inducer, healthy volunteers) is recorded as “clinically significant decrease”.

Consider `O=c1c(O)c(-c2ccc(O)c(O)c2)oc2cc(O)cc(O)c12` [Quercetin], for which, in the series on human liver microsomes [2], the “Mean Percent of Pemigatinib Remaining After 30-Minute Incubation (N = 3)” value is recorded as 77 ± 1%.

For `Nc1ccc(S(=O)(=O)Nc2ccnn2-c2ccccc2)cc1` [Sulfaphenazole], the “Mean Percent of Pemigatinib Remaining After 30-Minute Incubation (N = 3)” value in the series with human liver microsomes [2] came to 70 ± 3%.

For orientation: CL/F means clearance divided by bioavailability, as obtained after extravascular dosing. In general, Cmax refers to the highest concentration seen after dosing. Broadly, the Tmax is the time from dosing to the highest level.
